The values below come from US20090269734A1, “METHOD FOR DETERMINATION OF RECOGNITION SPECIFICITY OF VIRUS FOR RECEPTOR SUGAR CHAIN” (priority 2005, published 2009).

For assay [1], the system named is avian A virus: A/duck/Hong Kong/24/76 (H3N2). Format: binding, avian influenza A virus.
Assay [2] deals with human A virus: A/Memphis/1/71/(H3N2). Format: binding, human influenza A virus.
A further assay relates to human B virus: B/Lee/40. Format: binding, human influenza B virus.

“Poly (Neu5Ac α2-3Gal β1-4GlcNAc β-pAP/α-PGA)”: the “recognition of the polymer with sialo-oligosaccharide by the avian influenza A virus (absorbency at 492 nm)” value in assay [1] was “strongly recognizes”. Also, the “recognition of the polymer with sialo-oligosaccharide by the human influenza A virus (absorbency at 492 nm)” value in assay [2] is “weak”. The “recognition of the polymer with sialo-oligosaccharide by the human influenza B virus (absorbency at 492 nm)” value in the assay with human B virus: B/Lee/40 was “weak”.
For the substance “Poly (Neu5Ac α2-6Gal β1-4GlcNAc β-pAP/α-PGA)”, the “recognition of the polymer with sialo-oligosaccharide by the avian influenza A virus (absorbency at 492 nm)” value in assay [1] was “weak”. In addition, in assay [2], the “recognition of the polymer with sialo-oligosaccharide by the human influenza A virus (absorbency at 492 nm)” value was “strongly recognizes”. Besides, in the assay on human B virus: B/Lee/40, the “recognition of the polymer with sialo-oligosaccharide by the human influenza B virus (absorbency at 492 nm)” value is “strongly recognizes”.
